{"source": "patent US5214030A", "about": "“Calcitonin gene-related peptides for treating erectile dysfunctions” (priority 1989, dated 1993)", "origin": "cited, not measured here", "system": "Cynomolgus monkey", "settings": "1-2 intracavernosal injections per week over 12 months", "data": [{"compound": "COc1ccc(Cc2nccc3cc(OC)c(OC)cc23)cc1OC", "note": "[papaverine]", "values": [{"measurement": "findings in the erectile tissue", "value": "extensive fibrous formation in further parts of the erectile tissue"}]}]}
